Key:
Format in all cases: cell-based
[1] = test system: OV1063; assay: MTT cytotoxicity, OV1063 cancer cell line; conditions: Homo sapiens, OV-1063; OV1063 cells
[2] = test system: cancer cells; assay: Uptake of paclitaxel encapsulated in sHDL nanoparticles by cancer cells; conditions: encapsulated in the delivery particles; HDL receptors; FIG. 7
[3] = test system: OVCAR 3; assay: MTT cytotoxicity, OVCAR 3 cancer cell line; conditions: Homo sapiens; OVCAR 3 cells
[4] = test system: DU145; assay: MTT cytotoxicity, DU145 cancer cell line; conditions: Homo sapiens, DU-145; DU145 cells

In the case of `CC(=O)O[C@H]1C(=O)[C@@]2(C)[C@H]([C@H](OC(=O)c3ccccc3)[C@]3(O)C[C@H](OC(=O)[C@H](O)[C@@H](NC(=O)c4ccccc4)c4ccccc4)C(C)=C1C3(C)C)[C@]1(OC(C)=O)CO[C@@H]1C[C@@H]2O` [Ptx, paclitaxel], the IC50 [1] is reported as 14.2 µM, the “uptake by cancer cells” value [2] is reported as “taken up by cancer cells via this receptor mediated mechanism” and the IC50 [3] is reported as 70.3 µM. The IC50 [4] was 14.2 µM.
